pIC50: −log10 of the molar value.
Assays:
[1] = test system: secretion of apo CIII; assay: Reduction of apo CIII secretion by Hep G2 human hepatocytes in culture (ELISA); format: cell-based; settings: HepG2, Hep G2 cells, 24 hours incubation, read-out: concentration which gives a 50% inhibition of the secretion of Apo CIII
Protocol: The hypolipidaemiant activity of the compounds of the invention result from their ability to reduce the secretion of apo CIII.
The Hep G2 cell line is derived from a human hepatic carcinoma (ref. ECACC No. 85011430).
The cells are cultured at 37° C., 5% CO2 in 96-well microtitration plates at a rate of 40 000 cells (200 μl) per well in a DMEM buffer, 10% foetal calf serum, 1% Glutamax+antibiotics, for 24 hours. […] The cells are incubated for 24 hours at 37° C., 5% CO2 and the medium is then removed.
The amount of apolipoprotein CIII secreted into the medium is measured by means of an assay of ELISA type. Each sample of culture medium is diluted 5-fold in a 100 mM phosphate buffer, 1% BSA. […]
The optical density is read directly using a spectrophotometer at 492 nm. The amount of Apo CIII is calculated relative to a calibration curve produced using an assayed human serum of Apo CIII and diluted under the same conditions as the Apo CIII contained in the culture medium. […]
The active substances bring about a reduction in the secretion of Apo CIII into the medium by the adherent cells. The concentration of Apo CIII is measured for each treatment and compared with the control test (no treatment).
The percentage of inhibition is calculated according to: […]
(§1) The percentage of inhibition is calculated only for the substances that show no toxicity on the Hep G2 cells.

[2] = test system: Hep G2 cells; assay: Toxicity on the cells by staining with neutral red; format: cell-based, human; settings: for the concentrations studied
Protocol: In the absence of a chemical treatment, the response of the cells is 100% (0% inhibition). Under the conditions used, the effect of DMSO on the cells is negligible. The toxicity of the chemical substances on the cells is measured by the technique of staining with neutral red.
as §1

| melting point [°C] | Compound | pIC50 [1] | cell toxicity [2] |
| --- | --- | --- | --- |
| 194 to 196 | CC1=CSC2=Nc3ccccc3CCN12 [Example 50] |  |  |
| 231 to 233 | CCOC(=O)c1ccc(C2=CSC3=Nc4ccccc4CCN23)cc1 [Example 36, 3-[4-(ethoxycarbonyl)phenyl]-5,6-dihydro-thiazolo-[2,3-b]-1,3-benzodiazepine] |  |  |

Further lines, the compound ahead of its results:

| Compound | melting point [°C] | pIC50 [1] | cell toxicity [2] |
| --- | --- | --- | --- |
| C1=C(c2ccc(-c3ccccc3)cc2)N2CCc3ccccc3N=C2S1 [Example 4, 3-(biphenyl-4-yl)-5,6-dihydrothiazolo[2,3-b]-1,3-benzodiazepine] |  | 4.76 | No cell toxicity is observed |
| C1=C(c2ccc3ccccc3c2)N2CCc3ccccc3N=C2S1 [Example 47] | 188.5 to 189.5 |  |  |
| C1=C(c2ccc(Oc3ccccc3)cc2)N2CCc3ccccc3N=C2S1 [Example 67] | 204 to 205 |  |  |

From US7323458B1, “Dihydrobenzodiazepins and their use for treating dyslipidemia” (Merck Patent Gesellschaft Mit Beschrankter Haftung, priority 1999, dated 2008)
